According to article PMC4835159 (Journal of Medicinal Chemistry, 2016):
In brackets after ≈: the same amount, converted by molar mass. Several values for one entry are separate records, joined by “and”; a condition that tells them apart may be missing. Equal values may be shown once. Read-outs that look alike come from different tables or passages of the source.

Experiments:
[1] = target: T1, CYP121 (Mycobacterium tuberculosis, UniProt P9WPP7); format: binding
[2] = tested on: Mtb H37Rv; assay: Antimycobacterial activity assay (MIC90); format: cell-based, Mycobacterium tuberculosis; set-up: key to MIC90: “N” indicates that compounds did not produce any significant cell death within the tested concentration range; conditions: triplicate, 0–100 μM, 2 weeks
[3] = target: T1, CYP121; assay: Single shot UV–vis absorbance assay (Soret band shift, competition with type II inhibitor) on CYP121; format: binding; conditions: for Δλmax (change in wavelength of the Soret band): CYP121 5 μM, vs 1% v/v DMSO-d6 alone (λmax = 416.5 nm), single shot; for shifts in the CYP121 optical spectrum: UV–vis spectroscopy
[4] = target: T1, CYP121; assay: Native mass spectrometry of CYP121 with ligands; format: binding
[5] = target: T2, CYP144TR (Mycobacterium tuberculosis, UniProt P9WPL1)
T2 sequence (P9WPL1 31-434 limits assumed): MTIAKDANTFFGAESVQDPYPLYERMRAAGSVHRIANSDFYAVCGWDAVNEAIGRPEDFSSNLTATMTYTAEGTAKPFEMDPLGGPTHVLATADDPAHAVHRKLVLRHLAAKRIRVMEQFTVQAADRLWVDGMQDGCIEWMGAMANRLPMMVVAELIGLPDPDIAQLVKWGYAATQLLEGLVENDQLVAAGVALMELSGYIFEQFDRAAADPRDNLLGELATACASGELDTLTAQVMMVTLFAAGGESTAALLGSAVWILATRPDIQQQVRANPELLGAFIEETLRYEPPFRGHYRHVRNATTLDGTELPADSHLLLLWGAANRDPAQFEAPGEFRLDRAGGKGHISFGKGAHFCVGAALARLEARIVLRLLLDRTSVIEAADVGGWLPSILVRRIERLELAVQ

[6] = target: T3, CYP125 (Mycobacterium tuberculosis, UniProt P9WPP1); assay: Single shot UV–vis binding mode assay on CYP125
T3 sequence (P9WPP1 1-433): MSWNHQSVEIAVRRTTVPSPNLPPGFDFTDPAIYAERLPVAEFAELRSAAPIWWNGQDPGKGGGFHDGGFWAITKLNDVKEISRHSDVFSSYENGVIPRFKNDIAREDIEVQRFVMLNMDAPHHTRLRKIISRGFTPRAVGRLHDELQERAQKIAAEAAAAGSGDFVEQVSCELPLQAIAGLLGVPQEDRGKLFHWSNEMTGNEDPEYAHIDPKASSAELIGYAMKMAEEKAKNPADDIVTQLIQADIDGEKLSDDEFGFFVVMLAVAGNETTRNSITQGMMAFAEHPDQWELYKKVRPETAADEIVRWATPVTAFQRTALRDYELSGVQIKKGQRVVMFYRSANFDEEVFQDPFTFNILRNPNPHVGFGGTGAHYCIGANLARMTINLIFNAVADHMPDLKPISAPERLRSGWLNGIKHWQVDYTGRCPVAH

[7] = tested on: CYP1A (combined CYP1A1 and CYP1A2); assay: Human P450 inhibition in human liver microsomes, CYP1A (ethoxyresorufin); conditions: human, microsomes
[8] = Gibbs free energy of binding to CYP121 divided by number of heavy atoms (ΔG/HA)

T1 sequence (P9WPP7 whole entry): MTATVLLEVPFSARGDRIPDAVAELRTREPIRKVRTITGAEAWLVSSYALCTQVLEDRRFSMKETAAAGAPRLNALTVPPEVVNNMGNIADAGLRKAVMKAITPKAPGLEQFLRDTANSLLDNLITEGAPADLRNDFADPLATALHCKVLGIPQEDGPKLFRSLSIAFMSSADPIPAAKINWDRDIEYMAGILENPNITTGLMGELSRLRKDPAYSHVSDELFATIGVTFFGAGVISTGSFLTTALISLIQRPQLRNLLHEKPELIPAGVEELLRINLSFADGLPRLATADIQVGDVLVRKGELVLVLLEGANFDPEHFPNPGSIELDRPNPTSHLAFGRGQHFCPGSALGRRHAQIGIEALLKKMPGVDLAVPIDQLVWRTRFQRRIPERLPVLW

Nc1[nH]nc(-c2cccc(O)c2)c1-c1ccc(O)cc1 [14b, 3-(5-Amino-4-(4-hydroxyphenyl)-1H-pyrazol-3-yl)phenol]
LE (ligand efficiency) [1, 8]: 0.29

Nc1[nH]nc(-c2cccc(F)c2)c1-c1ccc(O)cc1 [14c, 4-(5-Amino-3-(3-fluorophenyl)-1H-pyrazol-4-yl)phenol]
LE (ligand efficiency) [1, 8]: 0.25 | MIC90 [2]: N

Nc1[nH]nc(-c2ccc(O)cc2O)c1-c1ccc(O)cc1 [14d, 4-(5-amino-4-(4-hydroxyphenyl)-1H-pyrazol-3-yl)benzene-1,3-diol]
LE (ligand efficiency) [1, 8]: 0.24

Nc1[nH]ncc1-c1cccc(-c2cccnc2)c1 [18e, 4-(3-(Pyridin-3-yl)phenyl)-1H-pyrazol-5-amine]
Δλmax (change in wavelength of the Soret band) [3]: 0 nm

Nc1[nH]ncc1-c1cccc(-c2ccncc2)c1 [18f, 4-(3-(Pyridin-4-yl)phenyl)-1H-pyrazol-5-amine]
Δλmax (change in wavelength of the Soret band) [3]: 1 nm

Nc1[nH]ncc1-c1cccc(-c2ccc3[nH]ccc3c2)c1 [18g, 4-(3-(1H-Indol-5-yl)phenyl)-1H-pyrazol-5-amine]
Δλmax (change in wavelength of the Soret band) [3]: 0 nm

Nc1[nH]ncc1-c1cccc(-c2ccc3cc[nH]c3c2)c1 [18h, 4-(3-(1H-Indol-6-yl)phenyl)-1H-pyrazol-5-amine]
Δλmax (change in wavelength of the Soret band) [3]: 0 nm

Nc1[nH]ncc1-c1cccc(-c2cn[nH]c2)c1 [18i, 4-(3-(1H-Pyrazol-4-yl)phenyl)-1H-pyrazol-5-amine]
Δλmax (change in wavelength of the Soret band) [3]: 0 nm

Nc1cccc(-c2cccc(-c3cn[nH]c3N)c2)c1 [19a, 4-(3′-Amino-[1,1′-biphenyl]-3-yl)-1H-pyrazol-5-amine]
Monomer (%) of CYP121 ([4]; Protein-Ligand Ratio 1:0.5): 23% | ligand binding stoichiometry, CYP121 Dimer ([4]; Protein-Ligand Ratio 1:0.5): 0 | ligand binding stoichiometry, CYP121 Monomer ([4]; Protein-Ligand Ratio 1:0.5): 0 | Monomer (%) of CYP121 ([4]; Protein-Ligand Ratio 1:1): 28% | ligand binding stoichiometry, CYP121 Dimer ([4]; Protein-Ligand Ratio 1:1): 0 | ligand binding stoichiometry, CYP121 Monomer ([4]; Protein-Ligand Ratio 1:1): 0 | Monomer (%) of CYP121 ([4]; Protein-Ligand Ratio 1:25): 33% | ligand binding stoichiometry, CYP121 Dimer ([4]; Protein-Ligand Ratio 1:25): 2 | ligand binding stoichiometry, CYP121 Monomer ([4]; Protein-Ligand Ratio 1:25): 1 | LE (ligand efficiency) [1]: 0.35 | MIC90 [2]: N

Nc1cccc(-c2cc(-c3cn[nH]c3N)ccc2OCc2ccccc2)c1 [19b, 4-(3′-Amino-6-(benzyloxy)-[1,1′-biphenyl]-3-yl)-1H-pyrazol-5-amine]
shifts in the CYP121 optical spectrum [3]: type II shifts | LE (ligand efficiency) [1, 8]: 0.23

COc1ccc(-c2cn[nH]c2N)cc1-c1cccc(N)c1 [19c, 4-(3′-Amino-6-methoxy-[1,1′-biphenyl]-3-yl)-1H-pyrazol-5-amine]
shifts in the CYP121 optical spectrum [3]: type II shifts | LE (ligand efficiency) [1, 8]: 0.27

COc1ccc(-c2n[nH]c(N)c2-c2cccc(-c3cccc(N)c3)c2)cc1 [24a, 4-(3′-Amino-[1,1′-biphenyl]-3-yl)-3-(4-methoxyphenyl)-1H-pyrazol-5-amine]
shifts in the CYP121 optical spectrum [3]: type II shifts | Monomer (%) of CYP121 ([4]; Protein-Ligand Ratio 1:0.5): 19% | ligand binding stoichiometry, CYP121 Dimer ([4]; Protein-Ligand Ratio 1:0.5): 1 | ligand binding stoichiometry, CYP121 Monomer ([4]; Protein-Ligand Ratio 1:0.5): 0 | Monomer (%) of CYP121 ([4]; Protein-Ligand Ratio 1:1): 16% | ligand binding stoichiometry, CYP121 Dimer ([4]; Protein-Ligand Ratio 1:1): 1 | ligand binding stoichiometry, CYP121 Monomer ([4]; Protein-Ligand Ratio 1:1): 1 | Monomer (%) of CYP121 ([4]; Protein-Ligand Ratio 1:25): 16% | ligand binding stoichiometry, CYP121 Dimer ([4]; Protein-Ligand Ratio 1:25): 2 | ligand binding stoichiometry, CYP121 Monomer ([4]; Protein-Ligand Ratio 1:25): 1 | LE (ligand efficiency) [1, 8]: 0.38 | MIC90 ([2]; Mycobacterium tuberculosis, 336 h, read-out: MIC90): 50 µM (≈ 17.8 µg/mL)

Nc1cccc(-c2cc(-c3c(-c4ccc(O)cc4)n[nH]c3N)ccc2O)c1 [25b, 3′-Amino-5-(5-amino-3-(4-hydroxyphenyl)-1H-pyrazol-4-yl)-[1,1′-biphenyl]-2-ol]
Binding Mode, CYP144TR [5]: N | Binding Mode, CYP125 [6]: N

Oc1ccc(-c2n[nH]c(NCc3ccc(O)c(Br)c3)c2-c2ccc(O)cc2)cc1 [26b, 4,4′-(5-((3-Bromo-4-hydroxybenzyl)amino)-1H-pyrazole-3,4-diyl)diphenol]
LE (ligand efficiency) [1, 8]: 0.22

Oc1ccc(-c2n[nH]c(NCc3ccsc3)c2-c2ccc(O)cc2)cc1 [26c, 4,4′-(5-((Thiophen-3-ylmethyl)amino)-1H-pyrazole-3,4-diyl)diphenol]
LE (ligand efficiency) [1, 8]: 0.25

Oc1ccc(-c2n[nH]c(NCc3ccco3)c2-c2ccc(O)cc2)cc1 [26d, 4,4′-(5-((Furan-2-ylmethyl)amino)-1H-pyrazole-3,4-diyl)diphenol]
LE (ligand efficiency) [1, 8]: 0.24

Oc1ccc(-c2n[nH]c(NCc3ccc4[nH]ccc4c3)c2-c2ccc(O)cc2)cc1 [26e, 4,4′-(5-(((1H-Indol-5-yl)methyl)amino)-1H-pyrazole-3,4-diyl)diphenol]
LE (ligand efficiency) [1, 8]: 0.19

Oc1ccc(-c2n[nH]c(NCc3cccc4[nH]ncc34)c2-c2ccc(O)cc2)cc1 [26f, 4,4′-(5-(((1H-Indazol-4-yl)methyl)amino)-1H-pyrazole-3,4-diyl)diphenol]
LE (ligand efficiency) [1, 8]: 0.20

Oc1ccc(-c2n[nH]c(NCc3ccncc3)c2-c2ccc(O)cc2)cc1 [26g, 4,4′-(5-((Pyridin-4-ylmethyl)amino)-1H-pyrazole-3,4-diyl)diphenol]
LE (ligand efficiency) [1, 8]: 0.18

Oc1ccc(-c2n[nH]c(NCc3c[nH]cn3)c2-c2ccc(O)cc2)cc1 [26h, 4,4′-(5-(((1H-Imidazol-4-yl)methyl)amino)-1H-pyrazole-3,4-diyl)diphenol]
Δλmax (type II shift) ([3]; ligand 100 μM, CYP121): +1.5 nm | LE (ligand efficiency) [1, 8]: 0.19

O=C(Nc1[nH]nc(-c2ccc(O)cc2)c1-c1ccc(O)cc1)c1ccccc1 [29a, N-(3,4-Bis(4-hydroxyphenyl)-1H-pyrazol-5-yl)benzamide]
LE (ligand efficiency) [1, 8]: 0.18

O=C(Nc1[nH]nc(-c2ccc(O)cc2)c1-c1ccc(O)cc1)c1ccc(O)cc1 [29b, N-(3,4-Bis(4-hydroxyphenyl)-1H-pyrazol-5-yl)-4-hydroxybenzamide]
LE (ligand efficiency) [1, 8]: 0.19

O=C(Nc1[nH]nc(-c2ccc(O)cc2)c1-c1ccc(O)cc1)c1ccncc1 [29c, N-(3,4-Bis(4-hydroxyphenyl)-1H-pyrazol-5-yl)isonicotinamide]
LE (ligand efficiency) [1, 8]: 0.16 | MIC90 [2]: N

CO[C@H]1/C=C/O[C@@]2(C)Oc3c(C)c(O)c4c(O)c(c(/C=N/N5CCN(C)CC5)c(O)c4c3C2=O)NC(=O)/C(C)=C\C=C\[C@H](C)[C@H](O)[C@@H](C)[C@@H](O)[C@@H](C)[C@H](OC(C)=O)[C@@H]1C [Rifampicin, reference compound]
MIC ([2]; Mycobacterium tuberculosis, 336 h): 0.75 µM (≈ 0.617 µg/mL)

O=c1cc(-c2ccccc2)oc2c1ccc1ccccc12 [alpha-naphthoflavone, reference compound]
IC50 [7]: 59.7 nM

Oc1ccc(Nc2[nH]nc(-c3ccc(O)cc3)c2-c2ccc(O)cc2)cc1 [compound 2, 4,4'-(5-((4-hydroxyphenyl)amino)-1H-pyrazole-3,4-diyl)diphenol]
LE (ligand efficiency) [1, 8]: 0.24 and 0.23

Nc1cc(-c2ccc(O)cc2)n[nH]1 [compound 3, 4-(5-Amino-1H-pyrazol-3-yl)phenol]
LE (ligand efficiency) [1, 8]: 0.30

Nc1[nH]ncc1-c1ccc(O)cc1 [compound 4, 4-(5-amino-1H-pyrazol-4-yl)phenol]
LE (ligand efficiency) [1, 8]: 0.29

Oc1ccc(Nc2cc(-c3ccc(O)cc3)n[nH]2)cc1 [compound 6, 4-((3-(4-Hydroxyphenyl)-1H-pyrazol-5-yl)amino)phenol]
Monomer (%) of CYP121 ([4]; Protein-Ligand Ratio 1:0.5): 11% | ligand binding stoichiometry, CYP121 Dimer ([4]; Protein-Ligand Ratio 1:0.5): 0 | ligand binding stoichiometry, CYP121 Monomer ([4]; Protein-Ligand Ratio 1:0.5): 0 | Monomer (%) of CYP121 ([4]; Protein-Ligand Ratio 1:1): 26% | ligand binding stoichiometry, CYP121 Dimer ([4]; Protein-Ligand Ratio 1:1): 0 | ligand binding stoichiometry, CYP121 Monomer ([4]; Protein-Ligand Ratio 1:1): 0 | Monomer (%) of CYP121 ([4]; Protein-Ligand Ratio 1:25): 12% | ligand binding stoichiometry, CYP121 Dimer ([4]; Protein-Ligand Ratio 1:25): 1 | ligand binding stoichiometry, CYP121 Monomer ([4]; Protein-Ligand Ratio 1:25): 1 | LE (ligand efficiency) [1, 8]: 0.34

NC(=O)c1cc(Cl)ccc1N [compound 7]
LE (ligand efficiency) [1, 8]: 0.30

Nc1cccc(Cn2cncn2)c1 [compound 8]
LE (ligand efficiency) [1, 8]: 0.29

Cc1ccc2cc(N)ccc2n1 [compound 9]
LE (ligand efficiency) [1, 8]: 0.39
